Measurements reported in PubChem BioAssay (NCI).
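Interpolation was linear, between the two tested concentrations surrounding the appropriate level; five concentrations were tested over 48 hours in 96-well plates. TGI is the concentration that stops growth completely.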

Key:
Assay in all cases: NCI-60 cell line screen, 48 h
COLO 205 colon = system: COLO 205 colon
HCT-15 colon = system: HCT-15 colon
RXF 393 renal = system: RXF 393 renal
NCI/ADR-RES ovarian = system: NCI/ADR-RES ovarian
NCI-H460 lung = system: NCI-H460 lung
SK-MEL-2 melanoma = system: SK-MEL-2 melanoma
LOX IMVI melanoma = system: LOX IMVI melanoma
TK-10 renal = system: TK-10 renal
U251 CNS = system: U251 CNS
SK-MEL-28 melanoma = system: SK-MEL-28 melanoma
IGROV1 ovarian = system: IGROV1 ovarian
BT-549 breast = system: BT-549 breast
SK-MEL-5 melanoma = system: SK-MEL-5 melanoma
HL-60(TB) leukemia = system: HL-60(TB) leukemia
M14 melanoma = system: M14 melanoma

Row | SMILES | TGI (COLO 205 colon) [µM] | TGI (HCT-15 colon) [µM] | TGI (RXF 393 renal) [µM] | TGI (NCI/ADR-RES ovarian) [µM] | TGI (NCI-H460 lung) [µM] | TGI (SK-MEL-2 melanoma) [µM] | TGI (LOX IMVI melanoma) [µM] | TGI (TK-10 renal) [µM] | TGI (U251 CNS) [µM] | TGI (SK-MEL-28 melanoma) [µM] | TGI (IGROV1 ovarian) [µM] | TGI (BT-549 breast) [µM] | TGI (SK-MEL-5 melanoma) [µM] | TGI (HL-60(TB) leukemia) [µM] | TGI (M14 melanoma) [µM]
1 | COC(=O)/C=C1\C(=O)N(C(C)=O)c2ccc(Br)cc21 | 27.8 | 21.7 | 21.2 | 36.9 | 30.4 | 27.7 | 20.3 | 14.6 | 20 | 28.6 | 20.7 | 22.8 | 23 | 5.66 | 23
2 | Cc1cn([C@@H]2C[C@@H]2CO)c(=O)[nH]c1=O | > 100 | > 100 | > 100 | > 100 | > 100 | > 100 | > 100 | > 100 | > 100 | > 100 | > 100 | > 100 | > 100 | > 100 | > 100
3 | O=c1[nH]c2nnc(COc3ccc(Cl)cc3Cl)n2nc1Cc1ccccc1 | > 100 | > 100 | 44.6 | > 100 | > 100 | > 100 | > 100 | 96.5 | 53.1 | > 100 | 76.6 | > 100 | > 100 | > 100 | > 100
4 | O=c1cc(N=Nc2ccc(Br)cc2)[nH]c(=S)[nH]1 | 45.1 | 29.8 | 45.4 | > 100 | > 100 | 33.3 | 29.4 | 32.1 | > 100 | 53.2 | > 100 | > 100 | > 100 | 58.6 | 29.1
5 | O=C(NC1(c2cc3ccccc3s2)CCCCC1)C1CCC1 | > 100 | > 100 | > 100 | > 100 | > 100 | > 100 | > 100 | > 100 | > 100 | > 100 | > 100 | > 100 | > 100 | > 100 | > 100
6 | CC(ON(C(c1ccccc1)C(C)C)C(C)(C)C)c1ccccc1 (stereo not given) | 32.5 | > 100 | 31.2 | 56.7 | 39.1 | 34.4 | 35.3 | 46.2 | 30.9 | 47.5 | 59.2 | 28.7 | 29.7 | 36.7 | 49.2
7 | CC(C)OC(=O)c1ccc(CCC2=CC(=O)C=CC2=O)cc1 | 22.1 | 25.1 | 25.1 | 22.1 | 54.1 | 43.1 | 14.2 | 22.4 | 37.8 | 32.9 | 27.5 | 19.7 | 30 | 7.56 | 39
8 | C=C1C(=O)O[C@H]2C/C(C)=C/CC[C@@]3(C)O[C@](C)(CC[C@@H]3I)[C@@H](I)C[C@@H]12 | 12.5 | 12.2 | 12.7 | 5.65 | 13.2 | 25.8 | 6.34 | 12.4 | 11.7 | 14.1 | 6.62 | 12.4 | 9.92 | 20.2 | 27.1
9 | O=C(CC(=O)N1N=C(N2CCCCC2)CC1c1ccccc1)Nc1ccccc1 (stereo not given) | > 100 | > 100 | > 100 | > 100 | > 100 | > 100 | > 100 | > 100 | > 100 | > 100 | > 100 | > 100 | > 100 | > 100 | > 100
10 | Cc1cc(S(=O)(=O)Nc2n[nH]c(Nc3ccc(Cl)cc3)n2)c(S)cc1Cl | > 100 | > 100 | > 100 | > 100 | > 100 | > 100 | > 100 | > 100 | > 100 | > 100 | > 100 | > 100 | > 100 | > 100 | > 100
11 | Oc1ccc(O)c(CNc2ccc(C(O)C(F)(F)F)cc2)c1 (stereo not given) | 37.8 | 30.7 | 26.7 | > 100 | 47.3 | 88 | 32.2 | 33.1 | > 100 | 77.3 | 30.1 | 28.2 | 76.2 | 16.4 | 35.5
12 | COc1ccc(C2N(c3ccc(F)cc3)C(=O)N3C(c4ccc(OC)cc4)N(c4ccc(F)cc4)C(=O)N23)cc1 (stereo not given) | > 100 | > 100 | > 100 | > 100 | > 100 | > 100 | > 100 | > 100 | > 100 | > 100 | > 100 | > 100 | > 100 | > 100 | > 100
13 | CN(C)c1ccc(C=Nc2ccc(-c3nc4ccccc4[nH]3)cc2)cc1 | > 100 | > 100 | 80 | 27.7 | > 100 | > 100 | > 100 | > 100 | > 100 | > 100 | > 100 | 88.8 | > 100 | 53.3 | > 100
